According to ChEMBL document CHEMBL4507275, “Data for DCP probe BI-2545” (2021):

Legend:
[1] = target: Calcium/calmodulin-dependent protein kinase kinase 1 (Homo sapiens) (UniProt Q8N5S9); conditions: Compound concentration 1000.0 nM
[2] = target: Muscarinic acetylcholine receptor M5 (Homo sapiens) (UniProt P08912); conditions: Compound concentration 10.0 uM
[3] = target: cGMP-dependent protein kinase 1 (Homo sapiens) (UniProt Q13976); conditions: Compound concentration 1000.0 nM
[4] = target: Mitogen-activated protein kinase kinase kinase 19 (Homo sapiens) (UniProt Q56UN5); conditions: Compound concentration 1000.0 nM
[5] = test system: Phosphatidylinositol 4,5-bisphosphate 3-kinase catalytic subunit alpha isoform (Homo sapiens), P42336 [H1047Y]; conditions: Compound concentration 1000.0 nM
[6] = target: Aurora kinase B (Homo sapiens) (UniProt Q96GD4); conditions: Compound concentration 1000.0 nM
[7] = target: Dual specificity tyrosine-phosphorylation-regulated kinase 1A (Homo sapiens) (UniProt Q13627); conditions: Compound concentration 1000.0 nM
[8] = target: Tyrosine-protein kinase Tec (Homo sapiens) (UniProt P42680); conditions: Compound concentration 1000.0 nM
[9] = test system: Tyrosine-protein kinase ABL1 (Homo sapiens), P00519 [Q252H]; conditions: Compound concentration 1000.0 nM
[10] = target: Serine/threonine-protein kinase WNK3 (Homo sapiens) (UniProt Q9BYP7); conditions: Compound concentration 1000.0 nM
[11] = target: Mitogen-activated protein kinase 10 (Homo sapiens) (UniProt P53779); conditions: Compound concentration 1000.0 nM
Chain of Mitogen-activated protein kinase 10 (Homo sapiens) (P53779 whole entry): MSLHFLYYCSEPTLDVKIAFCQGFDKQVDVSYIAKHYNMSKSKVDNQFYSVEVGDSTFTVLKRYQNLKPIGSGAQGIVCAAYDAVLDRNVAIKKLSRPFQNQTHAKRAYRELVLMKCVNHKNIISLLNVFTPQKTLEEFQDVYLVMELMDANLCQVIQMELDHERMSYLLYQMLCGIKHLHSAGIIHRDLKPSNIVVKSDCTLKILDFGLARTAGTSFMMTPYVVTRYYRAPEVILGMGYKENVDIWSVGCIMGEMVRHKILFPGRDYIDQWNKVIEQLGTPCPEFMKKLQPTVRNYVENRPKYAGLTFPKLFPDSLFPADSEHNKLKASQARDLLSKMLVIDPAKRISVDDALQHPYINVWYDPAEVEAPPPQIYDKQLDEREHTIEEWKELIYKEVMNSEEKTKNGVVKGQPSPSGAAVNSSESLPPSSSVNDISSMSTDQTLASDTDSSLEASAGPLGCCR

[12] = target: Dual specificity protein kinase TTK (Homo sapiens) (UniProt P33981); conditions: Compound concentration 1000.0 nM
Chain of Dual specificity protein kinase TTK (Homo sapiens) (P33981 whole entry): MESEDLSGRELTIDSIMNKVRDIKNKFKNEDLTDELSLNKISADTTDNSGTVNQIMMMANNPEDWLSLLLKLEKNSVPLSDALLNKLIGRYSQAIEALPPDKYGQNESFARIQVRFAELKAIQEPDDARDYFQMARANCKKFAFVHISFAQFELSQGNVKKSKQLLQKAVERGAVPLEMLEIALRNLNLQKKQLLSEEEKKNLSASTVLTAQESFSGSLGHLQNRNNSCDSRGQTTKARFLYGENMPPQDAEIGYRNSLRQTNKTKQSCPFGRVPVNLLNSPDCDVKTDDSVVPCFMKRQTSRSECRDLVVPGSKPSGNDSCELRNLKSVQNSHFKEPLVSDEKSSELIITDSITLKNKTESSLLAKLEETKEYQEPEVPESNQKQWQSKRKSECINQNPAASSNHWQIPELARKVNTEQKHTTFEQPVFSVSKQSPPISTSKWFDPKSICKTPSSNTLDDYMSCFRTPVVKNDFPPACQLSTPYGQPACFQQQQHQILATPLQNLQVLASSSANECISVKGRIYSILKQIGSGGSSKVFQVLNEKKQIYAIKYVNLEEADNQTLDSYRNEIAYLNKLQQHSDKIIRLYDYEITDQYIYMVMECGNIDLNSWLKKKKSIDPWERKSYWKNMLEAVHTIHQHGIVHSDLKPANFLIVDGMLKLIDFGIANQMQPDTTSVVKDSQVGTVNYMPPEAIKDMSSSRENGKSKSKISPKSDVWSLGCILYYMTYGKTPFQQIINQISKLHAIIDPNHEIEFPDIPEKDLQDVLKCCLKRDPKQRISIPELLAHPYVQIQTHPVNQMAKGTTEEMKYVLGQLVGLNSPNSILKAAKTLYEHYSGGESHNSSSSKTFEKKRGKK

[13] = target: Inhibitor of nuclear factor kappa-B kinase subunit alpha (Homo sapiens) (UniProt O15111); conditions: Compound concentration 1000.0 nM
[14] = target: Cyclin-dependent kinase 4 (Homo sapiens) (UniProt P11802); conditions: Compound concentration 1000.0 nM
[15] = target: Tyrosine-protein kinase JAK1 (Homo sapiens) (UniProt P23458); conditions: Compound concentration 1000.0 nM
[16] = target: Serine/threonine-protein kinase TAO2 (Homo sapiens) (UniProt Q9UL54); conditions: Compound concentration 1000.0 nM
[17] = target: STE20/SPS1-related proline-alanine-rich protein kinase (Homo sapiens) (UniProt Q9UEW8); conditions: Compound concentration 1000.0 nM
[18] = target: NUAK family SNF1-like kinase 2 (Homo sapiens) (UniProt Q9H093); conditions: Compound concentration 1000.0 nM
[19] = target: Insulin-like growth factor 1 receptor (Homo sapiens) (UniProt P08069); conditions: Compound concentration 1000.0 nM
[20] = test system: Receptor-type tyrosine-protein kinase FLT3 (Homo sapiens), P36888 [UNDEFINED MUTATION]; conditions: Compound concentration 1000.0 nM
[21] = target: Serine/threonine-protein kinase Nek1 (Homo sapiens) (UniProt Q96PY6); conditions: Compound concentration 1000.0 nM
[22] = target: GABA-A receptor; anion channel (Rattus norvegicus) (UniProt O09028+P15431+P18506+P18508+P19969+P20236+P23574+P23576+P28471+P28473+P30191+P62813+P63079+P63138+Q91ZM7+Q9ES14); conditions: Compound concentration 10.0 uM
[23] = test system: Leucine-rich repeat serine/threonine-protein kinase 2 (Homo sapiens), Q5S007 [G2019S]; conditions: Compound concentration 1000.0 nM
[24] = target: Serine/threonine-protein kinase 17A (Homo sapiens) (UniProt Q9UEE5); conditions: Compound concentration 1000.0 nM
[25] = test system: ALK tyrosine kinase receptor (Homo sapiens), Q9UM73 [L1196M]; conditions: Compound concentration 1000.0 nM
[26] = target: Tyrosine-protein kinase Fer (Homo sapiens) (UniProt P16591); conditions: Compound concentration 1000.0 nM
[27] = target: Tyrosine-protein kinase CSK (Homo sapiens) (UniProt P41240); conditions: Compound concentration 1000.0 nM
Chain of Tyrosine-protein kinase CSK (Homo sapiens) (P41240 2-450 limits assumed): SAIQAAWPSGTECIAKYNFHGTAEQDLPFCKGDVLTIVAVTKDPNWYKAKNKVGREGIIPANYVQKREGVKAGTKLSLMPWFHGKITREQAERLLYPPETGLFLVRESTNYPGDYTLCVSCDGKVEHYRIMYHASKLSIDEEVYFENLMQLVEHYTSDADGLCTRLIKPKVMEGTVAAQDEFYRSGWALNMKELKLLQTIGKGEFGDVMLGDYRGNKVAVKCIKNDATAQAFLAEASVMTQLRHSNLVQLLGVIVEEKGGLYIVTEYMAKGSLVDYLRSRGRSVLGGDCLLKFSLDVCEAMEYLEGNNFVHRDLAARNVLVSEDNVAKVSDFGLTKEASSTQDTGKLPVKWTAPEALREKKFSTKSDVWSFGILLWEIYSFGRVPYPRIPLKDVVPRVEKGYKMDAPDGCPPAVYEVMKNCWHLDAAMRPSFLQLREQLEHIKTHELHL

[28] = target: Serine/threonine-protein kinase SIK1 (Homo sapiens) (UniProt P57059); conditions: Compound concentration 1000.0 nM
[29] = test system: Phosphatidylinositol 4,5-bisphosphate 3-kinase catalytic subunit alpha isoform (Homo sapiens), P42336 [E545A]; conditions: Compound concentration 1000.0 nM
[30] = target: MAP kinase-activated protein kinase 5 (Homo sapiens) (UniProt Q8IW41); conditions: Compound concentration 1000.0 nM
[31] = test system: ALK tyrosine kinase receptor (Homo sapiens), Q9UM73 [C1156Y]; conditions: Compound concentration 1000.0 nM
[32] = target: Activin receptor type-1 (Homo sapiens) (UniProt Q04771); conditions: Compound concentration 1000.0 nM
[33] = target: Serine/threonine-protein kinase NLK (Homo sapiens) (UniProt Q9UBE8); conditions: Compound concentration 1000.0 nM
[34] = test system: Phosphatidylinositol 4,5-bisphosphate 3-kinase catalytic subunit alpha isoform (Homo sapiens), P42336 [Q546K]; conditions: Compound concentration 1000.0 nM
[35] = target: Protein-tyrosine kinase 2-beta (Homo sapiens) (UniProt Q14289); conditions: Compound concentration 1000.0 nM
[36] = target: Cyclin-dependent kinase-like 2 (Homo sapiens) (UniProt Q92772); conditions: Compound concentration 1000.0 nM
Chain of Cyclin-dependent kinase-like 2 (Homo sapiens) (Q92772 whole entry): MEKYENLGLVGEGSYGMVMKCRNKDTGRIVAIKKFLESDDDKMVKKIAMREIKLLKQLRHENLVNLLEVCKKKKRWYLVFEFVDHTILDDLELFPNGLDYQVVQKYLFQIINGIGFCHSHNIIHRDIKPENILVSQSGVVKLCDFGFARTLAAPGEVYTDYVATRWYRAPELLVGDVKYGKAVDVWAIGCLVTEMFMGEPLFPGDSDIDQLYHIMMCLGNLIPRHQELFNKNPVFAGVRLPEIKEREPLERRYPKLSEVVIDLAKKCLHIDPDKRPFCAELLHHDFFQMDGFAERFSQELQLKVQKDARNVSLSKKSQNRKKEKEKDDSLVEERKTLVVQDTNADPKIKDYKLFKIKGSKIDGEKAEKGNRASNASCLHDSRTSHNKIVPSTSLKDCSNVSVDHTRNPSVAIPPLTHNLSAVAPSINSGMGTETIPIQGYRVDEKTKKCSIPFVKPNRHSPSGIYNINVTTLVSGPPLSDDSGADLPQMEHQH

[37] = target: Platelet-derived growth factor receptor beta (Homo sapiens) (UniProt P09619); conditions: Compound concentration 1000.0 nM
Chain of Platelet-derived growth factor receptor beta (Homo sapiens) (P09619 whole entry): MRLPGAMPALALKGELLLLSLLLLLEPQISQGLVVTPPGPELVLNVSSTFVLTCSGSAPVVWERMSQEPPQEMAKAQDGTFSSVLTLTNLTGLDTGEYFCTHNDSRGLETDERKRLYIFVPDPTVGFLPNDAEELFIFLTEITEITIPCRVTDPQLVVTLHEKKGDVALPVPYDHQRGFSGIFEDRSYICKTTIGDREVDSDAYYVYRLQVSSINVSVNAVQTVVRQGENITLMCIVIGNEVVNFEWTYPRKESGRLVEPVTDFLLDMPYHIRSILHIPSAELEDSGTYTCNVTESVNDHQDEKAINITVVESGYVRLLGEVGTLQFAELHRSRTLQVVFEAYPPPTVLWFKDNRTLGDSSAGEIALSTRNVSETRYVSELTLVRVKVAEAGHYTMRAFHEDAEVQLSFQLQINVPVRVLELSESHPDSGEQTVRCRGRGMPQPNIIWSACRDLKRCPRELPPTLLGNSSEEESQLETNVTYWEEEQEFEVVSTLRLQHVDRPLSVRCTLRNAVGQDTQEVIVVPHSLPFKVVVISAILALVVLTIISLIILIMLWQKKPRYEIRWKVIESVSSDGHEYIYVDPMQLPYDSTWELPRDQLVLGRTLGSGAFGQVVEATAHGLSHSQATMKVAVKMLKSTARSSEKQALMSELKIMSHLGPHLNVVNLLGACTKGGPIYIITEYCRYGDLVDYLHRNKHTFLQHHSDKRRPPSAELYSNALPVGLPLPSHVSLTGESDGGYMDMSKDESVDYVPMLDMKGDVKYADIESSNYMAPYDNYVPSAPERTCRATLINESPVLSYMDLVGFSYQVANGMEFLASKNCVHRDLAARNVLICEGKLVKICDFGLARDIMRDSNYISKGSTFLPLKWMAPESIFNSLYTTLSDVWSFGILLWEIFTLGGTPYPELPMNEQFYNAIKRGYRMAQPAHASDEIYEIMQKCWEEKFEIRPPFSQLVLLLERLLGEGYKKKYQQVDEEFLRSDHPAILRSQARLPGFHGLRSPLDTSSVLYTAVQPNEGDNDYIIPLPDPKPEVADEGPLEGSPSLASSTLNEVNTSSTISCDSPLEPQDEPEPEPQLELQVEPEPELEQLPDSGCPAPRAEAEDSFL

[38] = test system: Receptor-type tyrosine-protein kinase FLT3 (Homo sapiens), P36888 [D835H]; conditions: Compound concentration 1000.0 nM
[39] = test system: Phosphatidylinositol 4,5-bisphosphate 3-kinase catalytic subunit alpha isoform (Homo sapiens), P42336 [H1047L]; conditions: Compound concentration 1000.0 nM
Chain of Phosphatidylinositol 4,5-bisphosphate 3-kinase catalytic subunit alpha isoform (Homo sapiens), P42336 [H1047L] (P42336 whole entry H1047L, canonical isoform): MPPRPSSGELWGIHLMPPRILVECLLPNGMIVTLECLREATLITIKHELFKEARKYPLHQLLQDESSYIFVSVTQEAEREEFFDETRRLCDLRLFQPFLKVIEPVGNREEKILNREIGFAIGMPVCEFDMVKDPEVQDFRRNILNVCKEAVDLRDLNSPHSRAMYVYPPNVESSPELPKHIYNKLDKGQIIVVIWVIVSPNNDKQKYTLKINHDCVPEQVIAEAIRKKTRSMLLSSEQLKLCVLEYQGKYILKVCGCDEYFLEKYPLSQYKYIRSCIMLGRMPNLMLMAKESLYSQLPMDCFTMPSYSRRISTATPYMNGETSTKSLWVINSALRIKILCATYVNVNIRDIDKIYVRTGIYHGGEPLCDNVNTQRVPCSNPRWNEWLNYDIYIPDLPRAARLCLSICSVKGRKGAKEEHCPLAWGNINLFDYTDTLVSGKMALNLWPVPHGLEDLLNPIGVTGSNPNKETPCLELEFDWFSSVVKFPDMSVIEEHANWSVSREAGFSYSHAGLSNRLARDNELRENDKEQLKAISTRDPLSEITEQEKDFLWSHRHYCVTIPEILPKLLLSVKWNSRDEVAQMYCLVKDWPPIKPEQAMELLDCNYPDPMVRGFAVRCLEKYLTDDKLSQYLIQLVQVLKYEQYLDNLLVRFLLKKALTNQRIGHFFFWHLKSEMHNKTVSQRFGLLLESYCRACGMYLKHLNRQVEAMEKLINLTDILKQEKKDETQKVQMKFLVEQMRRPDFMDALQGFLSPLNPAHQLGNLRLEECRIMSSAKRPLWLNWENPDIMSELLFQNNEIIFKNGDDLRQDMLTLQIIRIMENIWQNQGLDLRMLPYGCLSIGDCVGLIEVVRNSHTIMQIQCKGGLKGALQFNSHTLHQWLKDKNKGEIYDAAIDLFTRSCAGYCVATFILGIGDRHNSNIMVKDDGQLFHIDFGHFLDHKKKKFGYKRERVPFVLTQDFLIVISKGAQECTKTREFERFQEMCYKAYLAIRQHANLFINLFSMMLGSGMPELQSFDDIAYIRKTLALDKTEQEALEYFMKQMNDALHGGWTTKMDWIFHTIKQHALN

[40] = target: Mitogen-activated protein kinase kinase kinase kinase 2 (Homo sapiens) (UniProt Q12851); conditions: Compound concentration 1000.0 nM
[41] = target: Serine/threonine-protein kinase DCLK1 (Homo sapiens) (UniProt O15075); conditions: Compound concentration 1000.0 nM
[42] = target: Myosin light chain kinase family member 4 (Homo sapiens) (UniProt Q86YV6); conditions: Compound concentration 1000.0 nM
[43] = target: Mitogen-activated protein kinase 1 (Homo sapiens) (UniProt P28482); conditions: Compound concentration 1000.0 nM

Chain of Muscarinic acetylcholine receptor M5 (Homo sapiens) (P08912 whole entry): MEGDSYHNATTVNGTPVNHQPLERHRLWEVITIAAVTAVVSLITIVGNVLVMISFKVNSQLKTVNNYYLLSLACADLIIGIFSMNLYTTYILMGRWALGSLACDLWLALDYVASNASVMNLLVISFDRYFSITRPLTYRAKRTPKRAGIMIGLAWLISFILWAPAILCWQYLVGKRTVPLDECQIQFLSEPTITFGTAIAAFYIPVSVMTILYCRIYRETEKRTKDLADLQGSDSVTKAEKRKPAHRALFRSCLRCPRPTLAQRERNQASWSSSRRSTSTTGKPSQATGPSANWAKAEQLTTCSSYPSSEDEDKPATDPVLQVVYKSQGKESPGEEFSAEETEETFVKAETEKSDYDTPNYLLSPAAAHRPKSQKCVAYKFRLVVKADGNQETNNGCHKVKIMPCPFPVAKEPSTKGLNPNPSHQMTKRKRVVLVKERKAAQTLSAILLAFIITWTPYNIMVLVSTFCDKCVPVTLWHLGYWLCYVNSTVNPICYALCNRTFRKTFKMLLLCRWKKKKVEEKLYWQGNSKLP

With Cc1nccc(COC(=O)N2C[C@@H]3[C@@H](CNC(=O)c4ccc5[nH]nnc5c4)[C@@H]3C2)n1 [BI 3017] the residual activity [1] was 100%, the inhibition [2] was -9.7% and the residual activity [3] was 100%. For the same molecule, the residual activity [4] was 90%, the residual activity [5] was 82% and the residual activity [6] was 93%. For the same molecule, the residual activity [7] was 81%, the residual activity [8] was 94% and the residual activity [9] was 93%. The residual activity [10] was 91%, the residual activity [11] was 100% and the residual activity [12] was 89%. For the same molecule, the residual activity [13] was 100%, the residual activity [14] was 90% and the residual activity [15] was 92%. It also gave a residual activity [16] of 91%, a residual activity [17] of 79% and a residual activity [18] of 100%. For the same molecule, the residual activity [19] was 93%, the residual activity [20] was 100% and the residual activity [21] was 100%. The inhibition [22] was 9.85%, the residual activity [23] was 82% and the residual activity [24] was 79%. For the same molecule, the residual activity [25] was 93%, the residual activity [26] was 100% and the residual activity [27] was 99%. The residual activity [28] was 98%, the residual activity [29] was 87% and the residual activity [30] was 97%. For the same molecule, the residual activity [31] was 76%, the residual activity [32] was 95% and the residual activity [33] was 41%. It also gave a residual activity [34] of 85%, a residual activity [35] of 100% and a residual activity [36] of 95%. The residual activity [37] was 84%, the residual activity [38] was 97% and the residual activity [39] was 79%. It also gave a residual activity [40] of 84%, a residual activity [41] of 90% and a residual activity [42] of 89%. For the same molecule, the residual activity [43] was 100%.
O=C(NC[C@@H]1[C@H]2CN(C(=O)OCc3cc(C(F)(F)F)cc(C(F)(F)F)c3)C[C@@H]12)c1ccc2[nH]nnc2c1 [BI 2545] showed a residual activity [1] of 91%, an inhibition [2] of 15.3% and a residual activity [3] of 83%. For the same molecule, the residual activity [4] was 100%, the residual activity [5] was 62% and the residual activity [6] was 84%. The residual activity [7] was 86%, the residual activity [8] was 100% and the residual activity [9] was 100%. The residual activity [10] was 100%, the residual activity [11] was 90% and the residual activity [12] was 91%. For the same molecule, the residual activity [13] was 100%, the residual activity [14] was 100% and the residual activity [15] was 89%. For the same molecule, the residual activity [16] was 86%, the residual activity [17] was 80% and the residual activity [18] was 88%. It also gave a residual activity [19] of 100%, a residual activity [20] of 85% and a residual activity [21] of 44%. The inhibition [22] was 1.13%, the residual activity [23] was 91% and the residual activity [24] was 95%. For the same molecule, the residual activity [25] was 100%, the residual activity [26] was 97% and the residual activity [27] was 96%. For the same molecule, the residual activity [28] was 100%, the residual activity [29] was 96% and the residual activity [30] was 86%. It also gave a residual activity [31] of 94%, a residual activity [32] of 100% and a residual activity [33] of 100%. The residual activity [34] was 78%, the residual activity [35] was 85% and the residual activity [36] was 95%. The residual activity [37] was 90%, the residual activity [38] was 100% and the residual activity [39] was 100%. It also gave a residual activity [40] of 92%, a residual activity [41] of 94% and a residual activity [42] of 100%. The residual activity [43] was 100%.
